Assay results as given in the supplement of paper PMC11451515.

Test system: NOMO1
Assay: cell viability relative to DMSO control; higher = less cytotoxic
Conditions: 48 h
Method in brief: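 Library compounds in DMSO were pin-dosed in an 11-point threefold series (47 μM to 0.79 nM) onto leukemia cells in 1536-well plates (5 μl). Plates held 500 cells/well of NOMO1 or SEM or 1000 cells/well of P12-Ichikawa, each adapted for at least four passages in each medium. Luminescence was read with CellTiter-Glo One after 48 h at 37°C. Viability means the per-plate percentage relative to DMSO wells, using cell-free wells as background.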

[1] = HPLM + 10% dialyzed FBS, 0.000781 µM
[2] = HPLM + 10% dialyzed FBS, 0.00234 µM
[3] = HPLM + 10% dialyzed FBS, 0.00702 µM
[4] = HPLM + 10% dialyzed FBS, 0.0211 µM
[5] = HPLM + 10% dialyzed FBS, 0.0632 µM
[6] = HPLM + 10% dialyzed FBS, 0.19 µM
[7] = HPLM + 10% dialyzed FBS, 0.569 µM
[8] = HPLM + 10% dialyzed FBS, 1.71 µM
[9] = HPLM + 10% dialyzed FBS, 5.12 µM
[10] = HPLM + 10% dialyzed FBS, 15.4 µM
[11] = HPLM + 10% dialyzed FBS, 46.1 µM
[12] = RPMI 5 mM glucose + 10% FBS, 0.000781 µM
[13] = RPMI 5 mM glucose + 10% FBS, 0.00234 µM
[14] = RPMI 5 mM glucose + 10% FBS, 0.00702 µM
[15] = RPMI 5 mM glucose + 10% FBS, 0.0211 µM
[16] = RPMI 5 mM glucose + 10% FBS, 0.0632 µM
[17] = RPMI 5 mM glucose + 10% FBS, 0.19 µM
[18] = RPMI 5 mM glucose + 10% FBS, 0.569 µM
[19] = RPMI 5 mM glucose + 10% FBS, 1.71 µM
[20] = RPMI 5 mM glucose + 10% FBS, 5.12 µM
[21] = RPMI 5 mM glucose + 10% FBS, 15.4 µM
[22] = RPMI 5 mM glucose + 10% FBS, 46.1 µM
[23] = RPMI 5 mM glucose + 10% dialyzed FBS, 0.000781 µM
[24] = RPMI 5 mM glucose + 10% dialyzed FBS, 0.00234 µM
[25] = RPMI 5 mM glucose + 10% dialyzed FBS, 0.00702 µM
[26] = RPMI 5 mM glucose + 10% dialyzed FBS, 0.0211 µM
[27] = RPMI 5 mM glucose + 10% dialyzed FBS, 0.0632 µM
[28] = RPMI 5 mM glucose + 10% dialyzed FBS, 0.19 µM
[29] = RPMI 5 mM glucose + 10% dialyzed FBS, 0.569 µM
[30] = RPMI 5 mM glucose + 10% dialyzed FBS, 1.71 µM
[31] = RPMI 5 mM glucose + 10% dialyzed FBS, 5.12 µM
[32] = RPMI 5 mM glucose + 10% dialyzed FBS, 15.4 µM
[33] = RPMI 5 mM glucose + 10% dialyzed FBS, 46.1 µM

SMILES	cell viability [1] [%]	cell viability [2] [%]	cell viability [3] [%]	cell viability [4] [%]	cell viability [5] [%]	cell viability [6] [%]	cell viability [7] [%]	cell viability [8] [%]	cell viability [9] [%]	cell viability [10] [%]	cell viability [11] [%]	cell viability [12] [%]	cell viability [13] [%]	cell viability [14] [%]	cell viability [15] [%]	cell viability [16] [%]	cell viability [17] [%]	cell viability [18] [%]	cell viability [19] [%]	cell viability [20] [%]	cell viability [21] [%]	cell viability [22] [%]	cell viability [23] [%]	cell viability [24] [%]	cell viability [25] [%]	cell viability [26] [%]	cell viability [27] [%]	cell viability [28] [%]	cell viability [29] [%]	cell viability [30] [%]	cell viability [31] [%]	cell viability [32] [%]	cell viability [33] [%]
CC[C@H]1OC(=O)[C@H](C)[C@@H](O[C@H]2C[C@@](C)(OC)[C@@H](O)[C@H](C)O2)[C@H](C)[C@@H](O[C@@H]2O[C@H](C)C[C@H](N(C)C)[C@H]2O)[C@](C)(O)C[C@@H](C)/C(=N\OCOCCOC)[C@H](C)[C@@H](O)[C@]1(C)O	101	95.6	86	89.4	92.9	89.6	78.6	75.3	80.1	68.5	85.5	85.2	92	95	84.6	89.5	90.7	87.3	88.9	90.9	91.1	82	85.9	79.3	83.3	74.1	76.6	69.5	72.1	82.1	80.1	79.8	79.8
CC(C)[C@H](O)C(=O)N[C@@H](C)C(=O)N[C@@H]1C(=O)N(C)CCc2ccccc21	93.5	132	111	113	113	125	109	101	101	92.6	76.7	98.7	119	117	114	117	98.5	125	105	108	110	92.5	112	109	123	112	110	114	108	108	112	103	97.2
COc1ccc(-n2c(C)c([N+](=O)[O-])c3ccc(O)cc32)cc1	–	–	–	–	–	–	–	–	–	–	–	111	104	113	114	118	126	107	121	98.3	119	106	114	120	126	124	123	115	114	102	97.5	105	101
O=C(CCCN1CCC(O)(c2ccc(Cl)cc2)CC1)c1ccc(F)cc1	115	119	108	111	114	133	135	129	126	110	91.7	95.3	106	101	109	128	117	110	119	102	110	82.1	115	121	114	110	125	115	120	116	122	117	82.5
CC(C)[C@H]1C(=O)N[C@H](CO)Cc2c[nH]c3cccc(c23)N1C	104	98.3	106	111	125	128	112	75.8	50.6	47.2	45	96.2	103	112	104	111	119	99.7	77.7	67.9	51.1	46.7	81.7	94.4	93.2	93.2	97.5	120	100	69.5	71.1	56	47.4
C#CCC(Cc1cnc2nc(N)nc(N)c2n1)c1ccc(C(=O)N[C@@H](CCC(=O)O)C(=O)O)cc1 (stereo partly drawn)	124	114	130	128	93.6	52	45.8	49.4	45.1	54.7	49.7	127	122	122	123	114	97.7	73.9	77.1	78.4	72.4	74.9	–	–	–	–	–	–	–	–	–	–	–
Cn1cnc(N)c2ncnc1-2	111	130	108	117	139	92.4	139	80.3	63.5	11.5	6.59	99.7	113	117	119	131	111	118	117	94.7	18.5	9.02	102	124	118	130	135	113	120	118	79.7	19.3	11.9
Nc1ncnc2nc(-c3ccc(N4CCOCC4)nc3)cc(-c3cccc(Br)c3)c12	–	–	–	–	–	–	–	–	–	–	–	108	107	116	121	111	118	122	115	114	106	107	108	127	121	111	106	120	110	117	116	106	120
CC(O)(C[S+](=O)([O-])c1ccc(F)cc1)C(=O)Nc1ccc(C#N)c(C(F)(F)F)c1 (stereo not drawn)	84.9	85.7	98.6	92.6	96.8	97	112	94.2	94.8	87.5	48	86.5	93.4	96.5	93.3	85.5	85.8	91.6	93.3	92.3	86.1	50.7	75.9	91.7	101	95.3	107	109	105	82.5	86.6	79.4	57
COC(=O)CCC1=C(C)C2=CC3=NC(=CC4=C(C)C(=C([NH]4)C=C\5N=C(C=C1[NH]2)\C(=C5C)CCC(O)=O)C=C)\C6=C\C=C(/[C@@H](C(=O)OC)[C@@]36C)C(=O)OC	95.4	94.3	91.5	91.9	92.6	97	103	80.3	78.6	38.9	14.1	86.6	89.3	91.9	97.5	116	109	101	102	101	55.2	14.5	85.4	99	87	98.4	88	90.8	93.7	86.6	94.9	45.7	18.4
c1coc(CNc2ncnc3nc[nH]c23)c1	120	126	123	133	129	136	117	118	118	108	97.3	125	131	124	113	116	119	140	132	118	119	108	124	122	125	124	128	121	121	112	107	94.1	88.5
O=C(O)c1cccnc1	121	114	130	118	115	123	107	85.2	49.4	27.4	13.2	121	123	121	102	124	116	112	101	85	23.7	14.4	116	117	116	117	118	122	117	98.6	61.5	22.1	10
O=c1oc2cc(O)ccc2s1	109	128	120	107	114	110	110	95.8	101	110	90.3	109	117	130	108	105	116	108	108	115	102	98.3	98.1	116	117	119	103	104	112	105	101	107	109
CCC(=O)NC[C@H](Cc1ccc(OCCc2nc(-c3ccccc3)oc2C)cc1)N/C(C)=C\C(=O)c1ccc(C(F)(F)F)cc1	98.9	104	101	122	114	130	96.3	104	103	54.3	27.1	102	114	109	99.6	106	112	101	109	113	62.4	19.2	97.9	113	102	115	106	117	107	107	90.8	105	43.7
OC[C@H]1OC(O)C[C@@H](O)[C@@H]1O (stereo partly drawn)	110	113	127	125	125	128	121	135	109	122	52.4	–	–	–	–	–	–	–	–	–	–	–	109	118	128	125	137	123	120	142	128	129	68
NCCOc1cc(C(=O)Nc2cc(OCCN)c3ccccc3n2)nc(C(=O)Nc2cc(OCCN)c3ccccc3n2)c1	65.8	36.4	43.9	40.8	38.1	47.5	43.2	40.3	42.2	56.4	56.4	96	60.5	42.3	27	25.8	25.2	27.9	24	25.8	38.5	64.1	–	–	–	–	–	–	–	–	–	–	–
